Data from paper PMC6081437, “The potency of the broad spectrum bacteriocin, bactofencin A, against staphylococci is highly dependent on primary structure, N-terminal charge and disulphide formation” (Scientific Reports, 2018).
Like-named read-outs stand apart in the source and are kept apart here. Blank lines part the entries; values can stand above or below the compound they belong to. Bridge positions count the residues as written; N and C are the ends. Square brackets hold non-standard residues; d marks the D form. Peptide text beside a SMILES is read from it.

Key:
Listeria innocua DPC3572 = assay type: cell-based
Protocol: (§1) Peptides were resuspended at 1000 µM in 50 mM sodium phosphate buffer pH 6.8 and checked for purity by MALDI-TOF-MS. Peptides were serially diluted 1 in 4 to give a dilution series of 250, 62.50, 15.63, 3.91, 0.98 and 0.24 µM and assayed by the agar well diffusion assay described by Ryan et al.[19]. Briefly, 50 µl aliquots of each peptide concentration were plated on a S. aureus DPC5246 indicator plate and the plate incubated at 37 °C. Peptide activity (Minimum Inhibitory Concentration (MIC)) was taken as the lowest concentration of peptide to give a zone of inhibition. All assays were performed in triplicate. The dilution series values were rounded to the nearest whole number to give 1000, 250, 63, 16, 4, 1 and 0.25 µM and data is colour coded for ease of interpretation.
(§2) Bactofencin R8Q and bactofencin R8K were synthesised as described above and their activity compared to bactofencin A against S. aureus DPC5246, Listeria innocua DPC3572 and L. monocytogenes ATCC 23074.

[1] = test system: L. monocytogenes ATCC 23074; assay type: cell-based, Listeria monocytogenes
Protocol: as §1, §2

S. aureus DPC5246 = assay type: cell-based, Staphylococcus aureus
Summary of the method: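 Agar well diffusion assay: peptides in 50 mM sodium phosphate pH 6.8, 1-in-4 dilutions from 1000 µM stock (250 to 0.24 µM) applied to S. aureus DPC5246 indicator plates at 37 °C. MIC is the lowest concentration giving an inhibition zone, in triplicate; concentrations rounded to whole numbers.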

Listeria spp. = settings: cell free supernatants of L plantarum ST31 against L. innocua and L. monocytogenes; cited from earlier work
Excerpt: Todorov et al. (1999) previously described plantaricin ST31, a bacteriocin with an amino acid sequence determined to be KRKKHRXQVYNNGMPTGMYR, produced by a sourdough isolate Lactobacillus plantarum ST31, with a reported mass of 2755 + /− 0.3 Da[20]. Substitution of Cys for X results in a peptide with a mass of 2468 Da. However if tryptophan and cysteine, the C terminal amino acids of bactofencin A are included, a mass of 2757 Da is obtained and subsequent oxidation of cysteines gives the published mass, 2755 Da.

Activity (Minimum Inhibitory Concentration, MIC) (S. aureus DPC5246; DPC5246, pH 6.8): 1 µM
Compound: CSCC[C@@H]1NC(=O)CNC(=O)[C@H]([C@@H](C)O)NC(=O)[C@@H]2CCCN2C(=O)[C@H](CCSC)NC(=O)CNC(=O)[C@H](CC(N)=O)NC(=O)[C@H](CC(N)=O)NC(=O)[C@H](Cc2ccc(O)cc2)NC(=O)[C@H](C(C)C)NC(=O)[C@H](CCCNC(=N)N)NC(=O)[C@@H](NC(=O)[C@H](CCCNC(=N)N)NC(=O)[C@H](Cc2c[nH]cn2)NC(=O)[C@H](CCCCN)NC(=O)[C@H](CCCCN)NC(=O)[C@H](CCCNC(=N)N)NC(=O)[C@@H](N)CCCCN)CSSC[C@@H](C(=O)O)NC(=O)[C@H](Cc2c[nH]c3ccccc23)NC(=O)[C@H](C)NC(=O)[C@H](Cc2ccc(O)cc2)NC1=O [R20A] (H-KRKKHRCRVYNNGMPTGMYAWC-OH; disulfide 7-22)

Activity (MIC) (Listeria innocua DPC3572): 63 µM
Activity (MIC) ([1]; ATCC 23074): 63 µM
Activity (Minimum Inhibitory Concentration, MIC) (S. aureus DPC5246; DPC5246, pH 6.8): 1 µM
Compound: CSCC[C@@H]1NC(=O)CNC(=O)[C@H]([C@@H](C)O)NC(=O)[C@@H]2CCCN2C(=O)[C@H](CCSC)NC(=O)CNC(=O)[C@H](CC(N)=O)NC(=O)[C@H](CC(N)=O)NC(=O)[C@H](Cc2ccc(O)cc2)NC(=O)[C@H](C(C)C)NC(=O)[C@H](CCCNC(=N)N)NC(=O)[C@@H](NC(=O)[C@H](CCCNC(=N)N)NC(=O)[C@H](Cc2c[nH]cn2)NC(=O)[C@H](CCCCN)NC(=O)[C@H](CCCCN)NC(=O)[C@H](CCCNC(=N)N)NC(=O)[C@@H](N)CCCCN)CSSC[C@@H](C(=O)O)NC(=O)[C@H](Cc2c[nH]c3ccccc23)NC(=O)[C@H](CCCNC(=N)N)NC(=O)[C@H](Cc2ccc(O)cc2)NC1=O [bactofencin A] (H-KRKKHRCRVYNNGMPTGMYRWC-OH; disulfide 7-22)

Activity (Minimum Inhibitory Concentration, MIC) (S. aureus DPC5246; DPC5246, pH 6.8): > 1000 µM
Compound: CSCC[C@@H]1NC(=O)CNC(=O)[C@H]([C@@H](C)O)NC(=O)[C@H]2CCCN2C(=O)[C@H](CCSC)NC(=O)CNC(=O)[C@H](CC(N)=O)NC(=O)[C@H](CC(N)=O)NC(=O)[C@H](Cc2ccc(O)cc2)NC(=O)[C@H](C(C)C)NC(=O)[C@H](CCCNC(=N)N)NC(=O)[C@@H](NC(=O)[C@H](CCCNC(=N)N)NC(=O)[C@H](Cc2c[nH]cn2)NC(=O)[C@H](CCCCN)NC(=O)[C@H](CCCCN)NC(=O)[C@H](CCCNC(=N)N)NC(=O)[C@@H](N)CCCCN)CSSC[C@@H](C(=O)O)NC(=O)[C@H](Cc2c[nH]c3ccccc23)NC(=O)[C@H](CCCNC(=N)N)NC(=O)[C@H](Cc2ccc(O)cc2)NC1=O [P15Pd] (H-KRKKHRCRVYNNGM[dP]TGMYRWC-OH; disulfide 7-22; N-terminus assumed)

Activity (Minimum Inhibitory Concentration, MIC) (S. aureus DPC5246; DPC5246, pH 6.8): 1 µM
Compound: CSCC[C@@H]1NC(=O)CNC(=O)[C@H]([C@@H](C)O)NC(=O)[C@@H]2CCCN2C(=O)[C@H](CCSC)NC(=O)CNC(=O)[C@H](CC(N)=O)NC(=O)[C@H](CC(N)=O)NC(=O)[C@H](Cc2ccc(O)cc2)NC(=O)[C@H](C(C)C)NC(=O)[C@H](CCCNC(=N)N)NC(=O)[C@@H](NC(=O)[C@H](CCCNC(=N)N)NC(=O)[C@H](Cc2c[nH]cn2)NC(=O)[C@H](CCCCN)NC(=O)[C@H](CCCCN)NC(=O)[C@H](C)NC(=O)[C@@H](N)CCCCN)CSSC[C@@H](C(=O)O)NC(=O)[C@H](Cc2c[nH]c3ccccc23)NC(=O)[C@H](CCCNC(=N)N)NC(=O)[C@H](Cc2ccc(O)cc2)NC1=O [R2A] (H-KAKKHRCRVYNNGMPTGMYRWC-OH; disulfide 7-22)

Second part, the compound before the results:

Compound: CSCC[C@@H]1NC(=O)CNC(=O)[C@H]([C@@H](C)O)NC(=O)[C@@H]2CCCN2C(=O)[C@H](CCSC)NC(=O)CNC(=O)[C@H](CC(N)=O)NC(=O)[C@H](CC(N)=O)NC(=O)[C@H](Cc2ccc(O)cc2)NC(=O)[C@H](C(C)C)NC(=O)[C@H](CCC(N)=O)NC(=O)[C@@H](NC(=O)[C@H](CCCNC(=N)N)NC(=O)[C@H](Cc2c[nH]cn2)NC(=O)[C@H](CCCCN)NC(=O)[C@H](CCCCN)NC(=O)[C@H](CCCNC(=N)N)NC(=O)[C@@H](N)CCCCN)CSSC[C@@H](C(=O)O)NC(=O)[C@H](Cc2c[nH]c3ccccc23)NC(=O)[C@H](CCCNC(=N)N)NC(=O)[C@H](Cc2ccc(O)cc2)NC1=O [bactofencin R8Q] (H-KRKKHRCQVYNNGMPTGMYRWC-OH; disulfide 7-22; N-terminus assumed)
Activity (MIC) (Listeria innocua DPC3572; L. innocua DPC3572, agar well diffusion): 250 µM
Activity (MIC) ([1]; L. monocytogenes ATCC 23074, agar well diffusion): 250 µM
Activity (Minimum Inhibitory Concentration, MIC) (S. aureus DPC5246; agar well diffusion, 50 µl aliquots of 1 in 4 serial dilutions from 1000 µM in 50 mM sodium phosphate buffer pH 6.8, 37 °C, lowest concentration giving a zone of inhibition, triplicate, values rounded to whole numbers): 1 µM

Compound: KRKKHRXQVYNNGMPTGMYR [plantaricin ST31, bacteriocin produced by sourdough isolate Lactobacillus plantarum ST31 (Todorov et al. 1999); likely natural R8Q variant of bactofencin A]
activity against Listeria spp., in words (Listeria spp.): inactive

Compound: CSCC[C@@H]1NC(=O)CNC(=O)[C@H]([C@@H](C)O)NC(=O)[C@@H]2CCCN2C(=O)[C@H](CCSC)NC(=O)CNC(=O)[C@H](CC(N)=O)NC(=O)[C@@H](CC(N)=O)NC(=O)[C@H](Cc2ccc(O)cc2)NC(=O)[C@H](C(C)C)NC(=O)[C@H](CCCNC(=N)N)NC(=O)[C@@H](NC(=O)[C@H](CCCNC(=N)N)NC(=O)[C@H](Cc2c[nH]cn2)NC(=O)[C@H](CCCCN)NC(=O)[C@H](CCCCN)NC(=O)[C@H](CCCNC(=N)N)NC(=O)[C@@H](N)CCCCN)CSSC[C@@H](C(=O)O)NC(=O)[C@H](Cc2c[nH]c3ccccc23)NC(=O)[C@H](CCCNC(=N)N)NC(=O)[C@H](Cc2ccc(O)cc2)NC1=O [N11Nd] (H-KRKKHRCRVY[dN]NGMPTGMYRWC-OH; disulfide 7-22; N-terminus assumed)
Activity (Minimum Inhibitory Concentration, MIC) (S. aureus DPC5246; DPC5246, pH 6.8): > 1000 µM
